Assay results as given in patent US20100008976A1, “Medical Use of N-Phenylpropenoyl-Amino Acid Derivatives and Related Compounds” (Westfallsche Wilheims Universitat Munster, priority 2006, published 2010).

What was measured:
[1] = test system: human liver cells (HEPG2); assay: MTT cell metabolic (mitochondrial) activity in HepG2 liver cells; type: cell-based; conditions: for mitochondrial activity: HepG2, 10 and 100 μg/ml, incubation for 48 hours, MTT; for energy status: HepG2, shortened incubation time of 24 hours
Description: (§1) The HepG2 cell line, clone H20, was received from Prof. Mersch-Sundermann, Giessen University, and cultured as described in [2]. The cells were cultured in low glucose (1 g/l) Dulbecco's modified Eagle's medium (DMEM) with L-glutamine and 25 mM Hepes, which was mixed with 15% (v/v) heat-inactivated fetal calf serum (FCS) and gentamycin (30 μg/ml), in a moist atmosphere at 37+/−0.5° C., 5% CO2. The cells were trypsinized, washed with PBS (pH 7.4), gently centrifuged and then a cell suspension in a cell medium was prepared by forcing the sediment through a needle. The medium was changed every three to five days. The compounds Nos. 5 and 8 to be tested were dissolved in a concentration of 1 mg/ml in HepG2 medium, to which the serum-free supplement SerEx was added instead of FCS, and filtered through a 0.2 μm cellulose acetate filter.
The cells were seeded in 96-well microtiter plates (1×10^4 cells/well). […] The cell metabolic activity was quantified as 2.5 mg/ml MTT in accordance with. The extracytosolic LDH [4] was quantified with a cytotoxicity assay.
FIG. 2: Influence of compounds No. 5 and No. 8 (10 and 100 μg/ml) on the mitochondrial activity of human liver cells (HEPG2) after incubation for 48 hours.
The measurement plotted in FIG. 2 is the relative mitochondrial dehydrogenase activity (untreated control=100%). The bars represent the means of a representative experiment with n=10.

[2] = test system: Human primary keratinocytes (NHK); assay: BrdU incorporation proliferation in human keratinocytes; type: cell-based; conditions: 10 μg/ml
Description: (§2) Human primary keratinocytes (NHK) were isolated from human skin obtained by surgical resection of Caucasian patients. In vitro tests relating to the mitochondrial activity, the BrdU incorporation and for necrotic effects by means of an LDH assay were carried out.
(§3) The investigations were carried out with cells of the 2nd to 6th passage. Both compound No. 5 and compound No. 8 increased in a concentration of 10 μg/ml both the mitochondrial activity and the proliferation (FIG. 3).
(§4) FIG. 3: Influence of compounds No. 5 and No. 8 (10 μg/ml) on the mitochondrial activity (A) and the mitotic proliferation (B) of HaCaT keratinocytes after incubation for 60 hours.
(§5) The measurement plotted in FIG. 3A is the relative mitochondrial dehydrogenase activity (untreated control=100%) and in FIG. 3 b is the relative mitochondrial proliferation rate (untreated control=100%).
(§6) The mitochondrial activity was investigated using the MTT assay, and the proliferation by BrdU-incorporation ELISA. The bars represent the standard errors with n=10. Negative control: untreated cells, positive control: fibroblast growth factor FGF.

[3] = test system: Human primary keratinocytes (NHK); assay: LDH assay for necrotic effects in human keratinocytes; type: cell-based
Description: as §2, §3

Helicobacter pylori = assay: Adhesion of FITC-labeled Helicobacter pylori to human gastric mucosa; type: cell-based; conditions: for adhesion score / fluorescence intensity: FITC-labeled H. pylori on human gastric mucosa; for adhesion score: 1 mg/ml; for antiadhesive effect on Helicobacter pylori: bacteria incubated with compound 1 mg/ml, stomach tissue; for fluorescence intensity: untreated bacteria standardized to 100%
Description: Adhesion tests were carried out in accordance with. This entailed FITC-labeled bacteria being incubated with the compounds to be tested (1 mg/ml). Deparaffinized pieces of stomach tissue were incubated with the bacteria. Microorganisms which adhere to the epithelium were counted under a fluorescence microscope and compared with an untreated control.
The maximum adhesion, as found for example in the untreated control groups (negative control), was assigned a score of +++++, while lower adhesions were assigned scores ++++, +++, ++, + or −, the score found for the positive control (sialyllactose, [7]) being −.
FIG. 4: Fluorescence microscopes (200×) of a representative in situ experiment with FITC-labeled H. pylorion human gastric mucosa: (A) complete adhesion (+++++) of untreated bacteria, fluorescence intensity standardized to 100% (negative control), (B) positive control (−), fluorescence intensity 10% (C) compound No. 5 (++++), fluorescence intensity 78%, (D) compound No. 8 (+) fluorescence intensity 19%.

[4] = test system: Human primary keratinocytes (NHK); assay: MTT mitochondrial activity in human keratinocytes; type: cell-based; conditions: 10 μg/ml
Description: as §2, §3, §4, §5, §6

HepG2 cell line = assay: Extracytosolic LDH cytotoxicity assay in HepG2 cells; type: cell-based, human; conditions: HepG2, 100 and 10 μg/ml
Description: as §1
The cells were seeded in 96-well microtiter plates (1×10^4 cells/well). After 24 h, the medium was removed and the cells were exposed to the compounds to be tested, in concentrations of 100 and 10 μg/ml, for 48 h. The cell metabolic activity was quantified as 2.5 mg/ml MTT in accordance with. The extracytosolic LDH [4] was quantified with a cytotoxicity assay.

## O=C(/C=C/c1ccc(O)c(O)c1)N[C@@H](Cc1c[nH]c2ccccc12)C(=O)O [Compound 5, (+)-N-[3′,4′-dihydroxy-(E)-cinnamoyl]-L-tryptophan]
[1]
  mitochondrial activity: increased
  energy status: no effect
[2]
  proliferation: increased
[3]
  cytotoxicity: No cytotoxicity was detected
Helicobacter pylori
  adhesion score: ++++
  antiadhesive effect on Helicobacter pylori: no effect
  fluorescence intensity: 78%
[4]
  mitochondrial activity: increased
HepG2 cell line
  necrotic cytotoxicity (LDH): no necrotic cytotoxicity was detectable

## O=C(O)C[C@H](NC(=O)/C=C/c1ccc(O)c(O)c1)C(=O)O [Compound 8, (+)-N-[3′,4′-dihydroxy-(E)-cinnamoyl]-L-aspartic acid]
[1]
  mitochondrial activity: increased
  energy status: significantly increased
[2]
  proliferation: increased
[3]
  cytotoxicity: No cytotoxicity was detected
Helicobacter pylori
  adhesion score: +
  antiadhesive effect on Helicobacter pylori: almost complete suppression of adhesion
  fluorescence intensity: 19%
[4]
  mitochondrial activity: increased
HepG2 cell line
  necrotic cytotoxicity (LDH): no necrotic cytotoxicity was detectable

## O=C(/C=C/c1ccc(O)c(O)c1)N[C@@H](Cc1ccc(O)c(O)c1)C(=O)O [Compound 11, (−)-N-[3′,4′-dihydroxy-(E)-cinnamoyl]-3-hydroxy-L-tyrosine]
[1]
  mitochondrial activity: none of the effects described
[2]
  proliferation: none of the effects described
Helicobacter pylori
  antiadhesive effect on Helicobacter pylori: none of the effects described
[4]
  mitochondrial activity: none of the effects described

## sialyllactose [reference compound]
Helicobacter pylori
  adhesion score: −
  fluorescence intensity: 10%
